Experimental data taken from patent publication US20160060260A1, “BROMODOMAIN INHIBITORS FOR TREATING DISEASE” (Board of Regents, The University of Texas System, priority 2014, published 2016).

What follows are compounds tested against T1, Recombinant human His-tagged Trim24-PHD-bromodomain (Homo sapiens, UniProt O15164) (assay: Trim24 AlphaScreen Assay). Settings: 5 nM Trim24 protein, 15 nM biotinylated H3K23ac (1-33aa) peptide.
T1 construct: Recombinant human His-tagged Trim24-PHD-bromodomain (produced in-house); made in house
T1 sequence (O15164 824-1006 limits assumed): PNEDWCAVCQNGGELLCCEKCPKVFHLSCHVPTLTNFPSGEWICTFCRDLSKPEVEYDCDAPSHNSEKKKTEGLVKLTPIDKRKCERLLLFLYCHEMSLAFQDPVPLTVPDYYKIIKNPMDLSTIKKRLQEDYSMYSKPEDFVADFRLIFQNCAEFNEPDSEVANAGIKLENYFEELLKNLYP
Type: binding
Description: Recombinant human His-tagged Trim24-PHD-bromodomain (produced in-house), biotinylated H3K23ac (1-33aa) peptide (AnaSpec, Inc.), and test compound were added to a 384-well OptiPlate (Perkin Elmer) and incubated at room temperature for one hour. The assay buffer consisted of 50 mM Hepes, pH 7.5, 100 mM NaCl, and 0.12 mM Triton X-100.
Streptavidin donor beads and nickel chelate acceptor beads, both from a Perkin Elmer AlphaScreen Histidine Detection Kit, were then added to the Optiplate to a final concentration of 10 ug/mL each. Following a 2 hour incubation at room temperature, the microplate was read on an Envision Plate Reader (Perkin Elmer). Percent of control (POC) values were calculated from the following formula:
POC=[sample signal-average background signal]/[average maximum signal−average background signal]*100
The average maximum signal was obtained from wells containing all assay components except test compound. The average background signal pertained to wells with all assay components except Trim24 and test compound. IC50 values were calculated using a four-parameter logistic curve fit.
In the case of CCCOc1cc(OCCCO)cc(Oc2cc3c(cc2NS(=O)(=O)c2cn(C)c(C)n2)n(C)c(=O)n3C)c1 [Example 98, N-(6-(3-(3-hydroxypropoxy)-5-propoxyphenoxy)-1,3-dimethyl-2-oxo-2,3-dihydro-1H-benzo[d]imidazol-5-yl)-1,2-dimethyl-1H-imidazole-4-sulfonamide], the IC50 is reported as 10 to 100 nM. COc1cccc(S(=O)(=O)Nc2cc3c(cc2Oc2cccc(OCc4ccccc4)c2)n(C)c(=O)n3C)c1 [Example 18, N-(6-(3-(benzyloxy)phenoxy)-1,3-dimethyl-2-oxo-2,3-ddihydro-1H-benzo[d]imidazol-5-yl)-3-methoxybenzenesulfonamide] was tested, and the IC50 was 100 to 1000 nM. Work on Cn1cc(S(=O)(=O)Nc2cc3c(cc2Oc2cccc(OCC(F)(F)F)c2)n(C)c(=O)n3C)cn1 [Example 72, N-(1,3-dimethyl-2-oxo-6-(3-(2,2,2-trifluoroethoxy)phenoxy)-2,3-dihydro-1H-benzo[d]imidazol-5-yl)-1-methyl-1H-pyrazole-4-sulfonamide] yielded an IC50 of 10 to 100 nM. Compound CCCOc1cc(OCCCOC)cc(Oc2cc3c(cc2NS(=O)(=O)c2ccc(N(C)C)cc2)n(C)c(=O)n3C)c1 [Example 177, 4-(dimethylamino)-N-(6-(3-(3-methoxypropoxy)-5-propoxyphenoxy)-1,3-dimethyl-2-oxo-2,3-dihydro-benzo[d]imidazol-5-yl)benzenesulfonamide] has an IC50 of 100 to 1000 nM. Compound CCOc1cccc(Oc2cc3c(cc2NS(=O)(=O)c2cn(C)c(C)n2)n(C)c(=O)n3C)c1 [Example 6, N-(6-(3-ethoxyphenoxy)-1,3-dimethyl-2-oxo-2,3-dihydro-1H-benzo[d]imidazol-5-yl)-1,2-dimethyl-1H-imidazole-4-sulfonamide] has an IC50 of 100 to 1000 nM. Cc1nc(S(=O)(=O)Nc2cc3c(cc2Oc2cccc(OC(C)C)c2)n(C)c(=O)n3C)cn1C [Example 54, N-(6-(3-isopropoxyphenoxy)-1,3-dimethyl-2-oxo-2,3-dihydro-1H-benzo[d]imidazol-5-yl)-1,2-dimethyl-1H-imidazole-4-sulfonamide] showed an IC50 of 100 to 1000 nM. Work on CCCOc1cc(OCCCCCCN(C)C)cc(Oc2cc3c(cc2NS(=O)(=O)c2cn(C)cn2)n(C)c(=O)n3C)c1 [Example 188, N-(6-(3-((6-(dimethylamino)hexyl)oxy)-5-propoxyphenoxy)-1,3-dimethyl-2-oxo-2,3-dihydro-1H-benzo[d]imidazol-5-yl)-1-methyl-1H-imidazole-4-sulfonamide] yielded an IC50 of 10 to 100 nM. For CCCOc1cc(OCC2CC2)cc(Oc2cc3c(cc2NS(=O)(=O)c2cccnc2)n(C)c(=O)n3C)c1 [Example 118, N-(6-(3-(cyclopropylmethoxy)-5-propoxyphenoxy)-1,3-dimethyl-2-oxo-2,3-dihydro-1H-benzo[d]imidazol-5-yl)pyridine-3-sulfonamide], the IC50 was 10 to 100 nM. Work on CCn1cnc(S(=O)(=O)Nc2cc3c(cc2Oc2cccc(OCc4ccccc4)c2)n(C)c(=O)n3C)c1 [Example 50, N-(6-(3-(benzyloxy)phenoxy)-1,3-dimethyl-2-oxo-2,3-dihydro-1H-benzo[d]imidazol-5-yl)-1-ethyl-1H-imidazole-4-sulfonamide] yielded an IC50 of 100 to 1000 nM. CCCOc1cc(OCC2CC2)cc(Oc2cc3c(cc2NS(=O)(=O)c2cn(C)cn2)n(C)c(=O)n3C)c1 [Example 126, N-(6-(3-(cyclopropylmethoxy)-5-propoxyphenoxy)-1,3-dimethyl-2-oxo-2,3-dihydro-1H-benzo[d]imidazol-5-yl)-1-methyl-1H-imidazole-4-sulfonamide] showed an IC50 of 10 to 100 nM. With CC(CO)COc1cccc(Oc2cc3c(cc2NS(=O)(=O)c2cn(C)cn2)n(C)c(=O)n3C)c1 (stereo not drawn) [Example 230, N-(6-(3-(3-hydroxy-2-methylpropoxy)phenoxy)-1,3-dimethyl-2-oxo-2,3-dihydro-1H-benzo[d]imidazol-5-yl)-1-methyl-1H-imidazole-4-sulfonamide] the IC50 was 100 to 1000 nM. CCCOc1cccc(Oc2cc3c(cc2NS(=O)(=O)c2c[nH]cn2)n(C)c(=O)n3C)c1 [Example 86, N-(1,3-dimethyl-2-oxo-6-(3-propoxyphenoxy)-2,3-dihydro-1H-benzo[d]imidazol-5-yl)-1H-imidazole-4-sulfonamide] was tested, and the IC50 was 10 to 100 nM. Compound Cn1cnc(S(=O)(=O)Nc2cc3c(cc2Oc2cccc(OCC(C)(O)CN)c2)n(C)c(=O)n3C)c1 (stereo not drawn) [Example 234, N-{6-[3-(3-amino-2-hydroxy-2-methylpropoxy)phenoxy]-1,3-dimethyl-2-oxo-2,3-dihydro-1H-1,3-benzodiazol-5-yl}-1-methyl-1H-imidazole-4-sulfonamide] has an IC50 of over 1000 nM. Cc1c(S(=O)(=O)Nc2cc3c(cc2Oc2cc(OCCCCCCN(C)C)cc(OCC(F)(F)F)c2)n(C)c(=O)n3C)cnn1C [Example 215, N-(6-(3-((6-(dimethylamino)hexyl)oxy)-5-(2,2,2-trifluoroethoxy)phenoxy)-1,3-dimethyl-2-oxo-2-3,-dihydro-1H-benzo[d]imidazol-5-yl)-1,5-dimethyl-1H-pyrazole-4-sulfonamide] gave an IC50 of 1 to 10 nM. CCCOc1cc(OCCCCCCN)cc(Oc2cc3c(cc2NS(=O)(=O)c2cccc(C(=O)O)c2)n(C)c(=O)n3C)c1 [Example 220, 3-(N-(6-(3-((6-aminohexyl)oxy)-5-propoxyphenoxy)-1,3-dimethyl-2-oxo-2,3-dihydro-1H-benzo[d]imidazol-5-yl)sulfamoyl)benzoic acid] was tested, and the IC50 was 100 to 1000 nM. With C=CCN(c1cc2c(cc1Oc1cccc(OCCC)c1)n(C)c(=O)n2C)S(=O)(=O)c1cn(CC=C)cn1 [Example 244, N,1-diallyl-N-(1,3-dimethyl-2-oxo-6-(3-propoxyphenoxy)-2,3-dihydro-1H-benzo[d]imidazol-5-yl)-1H-imidazole-4-sulfonamide] the IC50 was 100 to 1000 nM. CCCOc1cc(OCCCOC)cc(Oc2cc3c(cc2NS(=O)(=O)c2ccc(OC(F)F)cc2)n(C)c(=O)n3C)c1 [Example 167, 4-(difluoromethoxy)-N-(6-(3-(3-methoxypropoxy)-5-propoxyphenoxy)-1,3-dimethyl-2-oxo-2,3-dihydro-1H-benzo[d]imidazol-5-yl)benzenesulfonamide] showed an IC50 of 100 to 1000 nM. COC(C)(CO)COc1cccc(Oc2cc3c(cc2NS(=O)(=O)c2cn(C)cn2)n(C)c(=O)n3C)c1 (stereo not drawn) [Example 232, N-{6-[3-(3-hydroxy-2-methoxy-2-methylpropoxy)phenoxy]-1,3-dimethyl-2-oxo-2,3-dihydro-1H-1,3-benzodiazol-5-yl}-1-methyl-1H-imidazole-4-sulfonamide] showed an IC50 of 100 to 1000 nM. In the case of CCCOc1cc(OCCCCCCO)cc(Oc2cc3c(cc2NS(=O)(=O)c2ccc(OC)c(OC)c2)n(C)c(=O)n3C)c1 [Example 179, N-(6-(3-((6-hydroxyhexyl)oxy)-5-propoxyphenoxy)-1,3-dimethyl-2-oxo-2,3-dihydro-1H-benzo[d]imidazol-5-yl)-3,4-dimethoxybenzenesulfonamide], the IC50 is reported as 10 to 100 nM. In the case of Cn1cc(S(=O)(=O)Nc2cc3c(cc2Oc2cccc(OCc4ccccc4)c2)n(C)c(=O)n3C)cn1 [Example 25, N-(6-(3-(benzyloxy)phenoxy)-1,3-dimethyl-2-oxo-2,3-dihydro-1H-benzo[d]imidazol-5-yl)-1-methyl-1H-pyrazole-4-sulfonamide], the IC50 is reported as 100 to 1000 nM. Work on CCCOc1cc(OCCCCCCN)cc(Oc2cc3c(cc2NS(=O)(=O)c2ccc(OC)c(OC)c2)n(C)c(=O)n3C)c1 [Example 7, N-(6-{3-[(6-aminohexyl)oxy]-5-propoxyphenoxy}-1,3-dimethyl-2-oxo-2,3-dihydro-1H-1,3-benzodiazol-5-yl)-3,4-dimethoxybenzene-1-sulfonamide] yielded an IC50 of 10 to 100 nM.
